From PubChem BioAssay (NCI)
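Growth conditions: 96-well plates. Treatment: test compound, 48 hours, 5 concentrations. Analysis: linear interpolation between bracketing concentrations; unreached endpoints set to highest concentration. GI50 is the concentration that inhibits growth by half. TGI: total growth inhibition.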

What was measured:
Assay in all cases: growth of human tumour cells (NCI), 48 h
A498 renal = system: A498 renal
MDA-MB-231 breast = system: MDA-MB-231 breast
A549 NSCLC = system: A549 NSCLC
RXF 393 renal = system: RXF 393 renal
OVCAR-5 ovarian = system: OVCAR-5 ovarian
SNB-19 CNS = system: SNB-19 CNS
NCI-H226 lung = system: NCI-H226 lung
HOP-92 NSCLC = system: HOP-92 NSCLC
CCRF-CEM leukemia = system: CCRF-CEM leukemia
IGROV1 ovarian = system: IGROV1 ovarian
HT29 colon = system: HT29 colon
T-47D breast = system: T-47D breast
SK-MEL-5 melanoma = system: SK-MEL-5 melanoma
U251 CNS = system: U251 CNS
NCI-H460 lung = system: NCI-H460 lung
NCI-H522 lung = system: NCI-H522 lung
UO-31 renal = system: UO-31 renal
SF-268 CNS = system: SF-268 CNS
HCC-2998 colon = system: HCC-2998 colon
SK-MEL-28 melanoma = system: SK-MEL-28 melanoma
CAKI-1 renal = system: CAKI-1 renal
OVCAR-3 ovarian = system: OVCAR-3 ovarian
HCT-116 colon = system: HCT-116 colon
SN12C renal = system: SN12C renal
SNB-75 CNS = system: SNB-75 CNS
SW-620 colon = system: SW-620 colon
NCI-H23 lung = system: NCI-H23 lung
UACC-62 melanoma = system: UACC-62 melanoma
SF-295 CNS = system: SF-295 CNS
UACC-257 melanoma = system: UACC-257 melanoma
BT-549 breast = system: BT-549 breast
HOP-62 NSCLC = system: HOP-62 NSCLC
SR leukemia = system: SR leukemia
PC-3 prostate = system: PC-3 prostate
SK-OV-3 ovarian = system: SK-OV-3 ovarian
SF-539 CNS = system: SF-539 CNS
SK-MEL-2 melanoma = system: SK-MEL-2 melanoma
RPMI-8226 leukemia = system: RPMI-8226 leukemia
NCI/ADR-RES ovarian = system: NCI/ADR-RES ovarian
MDA-MB-435 = system: MDA-MB-435
ACHN renal = system: ACHN renal
M14 melanoma = system: M14 melanoma
HCT-15 colon = system: HCT-15 colon
MALME-3M melanoma = system: MALME-3M melanoma
KM12 colon = system: KM12 colon
DU-145 prostate = system: DU-145 prostate
OVCAR-4 ovarian = system: OVCAR-4 ovarian
TK-10 renal = system: TK-10 renal
LOX IMVI melanoma = system: LOX IMVI melanoma
786-0 renal = system: 786-0 renal
EKVX NSCLC = system: EKVX NSCLC
HL-60(TB) leukemia = system: HL-60(TB) leukemia
COLO 205 colon = system: COLO 205 colon
K-562 leukemia = system: K-562 leukemia
MCF7 breast = system: MCF7 breast
HS 578T breast = system: HS 578T breast
MOLT-4 leukemia = system: MOLT-4 leukemia
OVCAR-8 ovarian = system: OVCAR-8 ovarian

With `CN(C)/C=N/S(=O)(=O)c1nn2c(C=O)c(-c3ccc(-c4ccccc4)cc3)nc2s1` the TGI (A498 renal) was 47.5 µM, the TGI (MDA-MB-231 breast) was 7.35 µM and the TGI (A549 NSCLC) was > 44.5 µM. For the same compound, the TGI (RXF 393 renal) was 4.49 µM, the TGI (OVCAR-5 ovarian) was 25.3 µM and the TGI (SNB-19 CNS) was 25.5 µM. The TGI (NCI-H226 lung) was 32.4 µM, the TGI (HOP-92 NSCLC) was 10.1 µM and the TGI (CCRF-CEM leukemia) was 0.647 µM. For the same compound, the TGI (IGROV1 ovarian) was 2.59 µM, the TGI (HT29 colon) was 1.49 µM and the TGI (T-47D breast) was 5.57 µM. For the same compound, the TGI (SK-MEL-5 melanoma) was 3.04 µM, the TGI (U251 CNS) was 3.17 µM and the TGI (NCI-H460 lung) was 13.7 µM. It also gave a TGI (NCI-H522 lung) of 1.6 µM, a TGI (UO-31 renal) of 2.73 µM and a TGI (SF-268 CNS) of 6.23 µM. For the same compound, the TGI (HCC-2998 colon) was 11.7 µM, the TGI (SK-MEL-28 melanoma) was 4.33 µM and the TGI (CAKI-1 renal) was 2.88 µM. It also gave a TGI (OVCAR-3 ovarian) of 3.73 µM, a TGI (HCT-116 colon) of 2.99 µM and a TGI (SN12C renal) of 3.19 µM. For the same compound, the TGI (SNB-75 CNS) was 18.3 µM, the TGI (SW-620 colon) was > 26.9 µM and the TGI (NCI-H23 lung) was 4.55 µM. The TGI (UACC-62 melanoma) was 6.45 µM, the TGI (SF-295 CNS) was 42.5 µM and the TGI (UACC-257 melanoma) was 9.31 µM. For the same compound, the TGI (BT-549 breast) was 3.05 µM, the TGI (HOP-62 NSCLC) was 22.9 µM and the TGI (SR leukemia) was 1.89 µM. For the same compound, the TGI (PC-3 prostate) was 5.07 µM, the TGI (SK-OV-3 ovarian) was 36.2 µM and the TGI (SF-539 CNS) was 7.54 µM. For the same compound, the TGI (SK-MEL-2 melanoma) was 8.24 µM, the TGI (RPMI-8226 leukemia) was 3 µM and the TGI (NCI/ADR-RES ovarian) was > 86.8 µM. It also gave a TGI (MDA-MB-435) of 4.8 µM, a TGI (ACHN renal) of 3.18 µM and a TGI (M14 melanoma) of 3.12 µM. The TGI (HCT-15 colon) was 7.75 µM, the TGI (MALME-3M melanoma) was 2.71 µM and the TGI (KM12 colon) was 7.36 µM. It also gave a TGI (DU-145 prostate) of 6.13 µM, a TGI (OVCAR-4 ovarian) of 4.24 µM and a TGI (TK-10 renal) of 3.83 µM. For the same compound, the TGI (LOX IMVI melanoma) was 2.76 µM, the TGI (786-0 renal) was 2.99 µM and the TGI (EKVX NSCLC) was 19.8 µM. The TGI (HL-60(TB) leukemia) was 0.342 µM.
`CCOC(=O)/C(=C\n1c(=O)sc2ccccc21)C(=O)c1ccccc1` was tested, and the TGI (COLO 205 colon) was > 100 µM, the TGI (K-562 leukemia) was > 100 µM and the TGI (A498 renal) was > 100 µM. The TGI (MDA-MB-231 breast) was > 100 µM, the TGI (A549 NSCLC) was > 100 µM and the TGI (MCF7 breast) was > 100 µM. The TGI (RXF 393 renal) was > 100 µM, the TGI (HS 578T breast) was > 100 µM and the TGI (OVCAR-5 ovarian) was > 100 µM. The TGI (NCI-H226 lung) was > 100 µM, the TGI (CCRF-CEM leukemia) was > 100 µM and the TGI (IGROV1 ovarian) was > 100 µM. The TGI (HT29 colon) was > 100 µM, the TGI (T-47D breast) was > 100 µM and the TGI (SK-MEL-5 melanoma) was > 100 µM. For the same compound, the TGI (U251 CNS) was > 100 µM, the TGI (NCI-H460 lung) was > 100 µM and the TGI (NCI-H522 lung) was > 100 µM. For the same compound, the TGI (UO-31 renal) was > 100 µM, the TGI (SF-268 CNS) was > 100 µM and the TGI (HCC-2998 colon) was > 100 µM. For the same compound, the TGI (SK-MEL-28 melanoma) was > 100 µM, the TGI (CAKI-1 renal) was 64.7 µM and the TGI (HCT-116 colon) was > 100 µM. For the same compound, the TGI (SN12C renal) was > 100 µM, the TGI (SNB-75 CNS) was > 100 µM and the TGI (SW-620 colon) was > 100 µM. The TGI (NCI-H23 lung) was > 100 µM, the TGI (UACC-62 melanoma) was > 100 µM and the TGI (SF-295 CNS) was > 100 µM. The TGI (UACC-257 melanoma) was > 100 µM, the TGI (MOLT-4 leukemia) was > 100 µM and the TGI (HOP-62 NSCLC) was > 100 µM. For the same compound, the TGI (OVCAR-8 ovarian) was > 100 µM, the TGI (SR leukemia) was > 100 µM and the TGI (PC-3 prostate) was > 100 µM. The TGI (SK-OV-3 ovarian) was > 100 µM, the TGI (SF-539 CNS) was > 100 µM and the TGI (SK-MEL-2 melanoma) was > 100 µM. The TGI (RPMI-8226 leukemia) was > 100 µM, the TGI (NCI/ADR-RES ovarian) was > 100 µM and the TGI (MDA-MB-435) was > 100 µM. For the same compound, the TGI (ACHN renal) was > 100 µM, the TGI (M14 melanoma) was > 100 µM and the TGI (HCT-15 colon) was > 100 µM. For the same compound, the TGI (MALME-3M melanoma) was > 100 µM, the TGI (KM12 colon) was > 100 µM and the TGI (DU-145 prostate) was > 100 µM. The TGI (OVCAR-4 ovarian) was > 100 µM, the TGI (LOX IMVI melanoma) was > 100 µM and the TGI (786-0 renal) was > 100 µM. The TGI (EKVX NSCLC) was > 100 µM and the TGI (HL-60(TB) leukemia) was > 100 µM.
For `C=CCn1c(C)nc2cc(Nc3nc(N4CCCC4)nc4nc[nH]c34)ccc21`, the GI50 (COLO 205 colon) was 3.16 µM, the TGI (COLO 205 colon) was > 100 µM and the GI50 (A498 renal) was > 100 µM. For the same compound, the TGI (A498 renal) was > 100 µM, the GI50 (RXF 393 renal) was > 100 µM and the TGI (RXF 393 renal) was > 100 µM. The GI50 (OVCAR-5 ovarian) was > 100 µM, the TGI (OVCAR-5 ovarian) was > 100 µM and the GI50 (SNB-19 CNS) was > 100 µM. For the same compound, the TGI (SNB-19 CNS) was > 100 µM, the GI50 (NCI-H226 lung) was > 100 µM and the TGI (NCI-H226 lung) was > 100 µM. For the same compound, the GI50 (HOP-92 NSCLC) was > 100 µM, the TGI (HOP-92 NSCLC) was > 100 µM and the GI50 (CCRF-CEM leukemia) was 54.5 µM. The TGI (CCRF-CEM leukemia) was > 100 µM, the GI50 (IGROV1 ovarian) was > 100 µM and the TGI (IGROV1 ovarian) was > 100 µM. For the same compound, the GI50 (SK-MEL-5 melanoma) was > 100 µM, the TGI (SK-MEL-5 melanoma) was > 100 µM and the GI50 (NCI-H522 lung) was > 100 µM. The TGI (NCI-H522 lung) was > 100 µM, the GI50 (UO-31 renal) was > 100 µM and the TGI (UO-31 renal) was > 100 µM. For the same compound, the GI50 (HCC-2998 colon) was > 100 µM, the TGI (HCC-2998 colon) was > 100 µM and the GI50 (CAKI-1 renal) was > 100 µM. The TGI (CAKI-1 renal) was > 100 µM, the GI50 (NCI-H23 lung) was > 100 µM and the TGI (NCI-H23 lung) was > 100 µM. The GI50 (UACC-62 melanoma) was > 100 µM, the TGI (UACC-62 melanoma) was > 100 µM and the GI50 (SF-295 CNS) was > 100 µM. The TGI (SF-295 CNS) was > 100 µM, the GI50 (UACC-257 melanoma) was > 100 µM and the TGI (UACC-257 melanoma) was > 100 µM. For the same compound, the GI50 (MOLT-4 leukemia) was > 100 µM, the TGI (MOLT-4 leukemia) was > 100 µM and the GI50 (PC-3 prostate) was > 100 µM. The TGI (PC-3 prostate) was > 100 µM, the GI50 (SK-MEL-2 melanoma) was > 100 µM and the TGI (SK-MEL-2 melanoma) was > 100 µM. The GI50 (RPMI-8226 leukemia) was > 100 µM, the TGI (RPMI-8226 leukemia) was > 100 µM and the GI50 (NCI/ADR-RES ovarian) was > 100 µM. The TGI (NCI/ADR-RES ovarian) was > 100 µM, the GI50 (ACHN renal) was > 100 µM and the TGI (ACHN renal) was > 100 µM. The GI50 (M14 melanoma) was 29.6 µM, the TGI (M14 melanoma) was > 100 µM and the GI50 (HCT-15 colon) was > 100 µM. For the same compound, the TGI (HCT-15 colon) was > 100 µM, the GI50 (DU-145 prostate) was > 100 µM and the TGI (DU-145 prostate) was > 100 µM. For the same compound, the GI50 (LOX IMVI melanoma) was > 100 µM, the TGI (LOX IMVI melanoma) was > 100 µM and the GI50 (HL-60(TB) leukemia) was > 100 µM. For the same compound, the TGI (HL-60(TB) leukemia) was > 100 µM.
